Two compounds from article PMC11190219 (2024) can be followed below.

Test [1] has as its system c-KIT1 (DNA, G4) GGGAGGGCGCTGGGAGGAGGG
Kind of test: fluorescence titration (ligand emission). The conditions noted are these: K+ 60 mM (potassium cacodylate); pH 7.4, room temperature, 2.5 µM TBP2, Hill-1 fit, apparent.

Test [2] concerns c-MYC22 (NMR) (DNA, G4) TGAGGGTGGGTAGGGTGGGTAA
Kind of test: 1D 1H NMR titration. The conditions noted are these: K+ 100 mM; 25 mM Tris-HCl, pH 7.4, 100 µM DNA, 5-7.5% d6-DMSO.

Test [3] deals with FAM-c-KIT2-TAMRA (DNA, G4) GGGCGGGCGCTAGGGAGGGG
The test can be described thus: FRET melting. To be noted: K+ 60 mM (potassium cacodylate); pH 7.4, 2 µM compound, 0.2 µM DNA.

For test [4], the system named is h-TELO (DNA, G4) TTGGGTTAGGGTTAGGGATTAGGGA
Kind of test: fluorescence titration (ligand emission). To be noted: K+ 60 mM (potassium cacodylate); pH 7.4, room temperature, 2.5 µM TBP2, Hill-1 fit, apparent.

Test [5] relates to c-KIT2 (DNA, G4) GGGCGGGCGCTAGGGAGGGG
Kind of test: fluorescence titration (ligand emission). The conditions noted are these: K+ 60 mM (potassium cacodylate); pH 7.4, room temperature, 2.5 µM TBP2, Hill-1 fit, apparent.

For test [6], the system named is FAM-BCL-2-TAMRA (DNA, G4) GGGCGCGGGAGGAATTGGGCGGG
Kind of test: FRET melting. The conditions noted are these: K+ 60 mM (potassium cacodylate); pH 7.4, 2 µM compound, 0.2 µM DNA.

Test [7] has as its system FAM-c-KIT1-TAMRA (DNA, G4) GGGAGGGCGCTGGGAGGAGGG
The test can be described thus: FRET melting. The conditions noted are these: K+ 60 mM (potassium cacodylate); pH 7.4, 2 µM compound, 0.2 µM DNA.

Test [8] has as its system BCL-2 (DNA, G4) GGGCGCGGGAGGAATTGGGCGGG
Kind of test: fluorescence titration (ligand emission). To be noted: K+ 60 mM (potassium cacodylate); pH 7.4, room temperature, 2.5 µM TBP2, Hill-1 fit, apparent.

Consider `CN(C)CCCNC(=O)c1csc(NC(=O)c2csc(NC(=O)CCCc3cn(CCNC(=O)c4csc(NC(=O)c5csc(N)n5)n4)nn3)n2)n1`, for which the Kd in test [1] is 9.5 µM; in test [4], 8.2 µM; in test [5], 9.2 µM; in test [8], 10.2 µM. Moreover, the binding result in test [2] is “yes”. Besides, the ΔTM in test [3] was 4.1 ± 0.2 °C; in test [6], 3.8 ± 0.2 °C; in test [7] it was 1.3 ± 0.1 °C.

On to `CN(C)CCCNC(=O)c1csc(NC(=O)c2csc(NC(=O)CCCc3cn(CCNC(=O)c4csc(NC(=O)c5csc(NC(=O)OC(C)(C)C)n5)n4)nn3)n2)n1`, for which the figures for the ΔTM in test [3], in test [6] and in test [7] were 0.5 ± 0 °C, 1 ± 0 °C and 0 °C, respectively.
